Results reported in US20100015243A1, “METHOD FOR PREPARING MATERIALS HAVING ANTITHROMBOTIC ACTIVITY FROM MUSKRAT MUSK AND MATERIALS OBTAINED FROM THE METHOD” (priority 2006, published 2010).

Test system: Thrombin
Experiment: Thrombin time measurement (antithrombotic activity) with Thrombitimer2
Assay type: biochemical
Details: per 0.1 mg of asprin; time until fibrinogen clots are formed; FIG. 8
Experimental: As for the 4th step, a thrombin time of the divided groups in the 3rd step are measured and the group showing the highest antithrombotic activity is selected. The thrombin time is, but not limited to, a time until fibrinogen clots are formed. For example, with Thrombitimer2 (Behnk Elektronik, Germany), after adding Thrombin (T46481KU-59NIH unit/mg) and fibrinogen, the time until fibrinogen clots are formed is counted.
The activity was measured by counting a thrombin time according to the method described in Choi et al., Kor. J. Pharmacogn. 26, 154-158, 1995 and Son et al., Kor. J. Pharmacogn. 34 (1):52-61, 2004.
Specifically, the thrombin time was measured with Thrombitimer2 (Behnk Elektronik, Germany) wherein a fixed concentration of specimen was dissolved in 10 ? of dimethylsulfoxide (DMSO), the solution was added to a tube with 50 ? of borate buffer (pH7.8), Thrombin 1 unit/50 ? (T46481KU-59NIH unit/mg solid, Sigma Co., USA) was mixed with the solution, the mixture was warmed at 37° C. for 5 minutes, 200 ? of fibrinogen (0.33%, Sigma Co., USA) was added to it, and the time until coaggulation occurs was counted. […]
Antithrombotic activity was measured by counting a thrombin time and the result is an average of at least 3 experiments.

## CC(=O)Oc1ccccc1C(=O)O [asprin]
  thrombin time: 15 s
